One block for each compound: values may come before it.
What was measured:
Vitamin D3 receptor = target: T1, Vitamin D3 receptor (Homo sapiens, UniProt P11473); assay: Binding affinity to VDR receptor
T1 sequence (P11473 whole entry): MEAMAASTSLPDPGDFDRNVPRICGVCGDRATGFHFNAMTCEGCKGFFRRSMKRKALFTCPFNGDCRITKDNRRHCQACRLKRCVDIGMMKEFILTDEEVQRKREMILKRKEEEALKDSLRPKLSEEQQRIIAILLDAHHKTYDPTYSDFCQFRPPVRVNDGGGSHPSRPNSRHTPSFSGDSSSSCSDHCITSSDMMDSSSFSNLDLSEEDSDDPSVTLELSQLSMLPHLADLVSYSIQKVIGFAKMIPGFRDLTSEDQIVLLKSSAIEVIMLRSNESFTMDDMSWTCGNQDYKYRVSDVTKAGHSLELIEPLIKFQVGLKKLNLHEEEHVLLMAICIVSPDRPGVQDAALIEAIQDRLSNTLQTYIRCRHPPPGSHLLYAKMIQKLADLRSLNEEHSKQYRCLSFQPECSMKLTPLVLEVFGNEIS

Homo sapiens = species on record: Homo sapiens; assay: Inhibition of growth of human keratinocytes; format: functional
[1] = target: Inosine-5'-monophosphate dehydrogenase (IMPDH) (Homo sapiens, UniProt P20839+P12268); assay: Inhibition of […] dehydrogenase (IMPDH); range 7-8 nM; format: protein assay
[2] = Competitive inhibition of ATP binding
[3] = Inhibition of growth of T-cell lymphoblastoma; range 1-10 uM; format: functional

SMILES: COc1c(C)c2c(c(N)c1C/C=C1\CCCC1[C@H](C)C(=O)O)C(=O)OC2 (some centres undefined)
IC50 [1]: 7 nM

SMILES: C=C1/C(=C\C=C2/CCC[C@]3(C)[C@@H]([C@H](C)/C=C/[C@@H](O)C4CC4)CC[C@@H]23)C[C@@H](O)C[C@@H]1O [CALCIPOTRIENE]
IC50 (Homo sapiens): 32 nM

SMILES: COc1cc(NC(=O)Nc2cccc(CNC(=O)O[C@H]3CCOC3)c2)ccc1-c1cnco1 [MERIMEPODIB]
IC50 [1]: 7 nM

SMILES: C/C(O)=C(\C#N)C(=O)Nc1ccc(C(F)(F)F)cc1
Concentration [3]: 1 µM

The next lines start with results.

Kd (Vitamin D3 receptor): 0.089 nM
SMILES: C=C1/C(=C\C=C2/CCC[C@]3(C)C([C@@H](C)CSc4ccc(C(C)(C)O)cc4)CC[C@@H]23)C[C@@H](O)C[C@@H]1O (some centres undefined)
IC50 (Homo sapiens): 0.28 nM

Kd (Vitamin D3 receptor): 0.073 nM
SMILES: C=C1/C(=C\C=C2/CCC[C@]3(C)C([C@@H](C)COc4ccc(C(C)(C)O)cc4)CC[C@@H]23)C[C@@H](O)C[C@@H]1O (some centres undefined)
IC50 (Homo sapiens): 0.11 nM

IC50 [2]: 0.025 nM
SMILES: COc1cc2ncnc(Nc3cccc(Br)c3)c2cc1OC

— ChEMBL document CHEMBL1134331, “New dermatological agents for the treatment of psoriasis” (J Med Chem, 2001)
